Experiments:
[1] = test system: chemotherapy-induced hand-foot syndrome; test: Prevention of chemotherapy-induced hand-foot syndrome in rat models (Table 5); assay type: in vivo, SD rats
In short: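 SD rats (~200 g, 10 per group) received chemotherapy drugs by gavage at 1 mL/100 g, then NO-NSAID ointment or blank ointment was applied to the paws. Hand-foot syndrome incidence was recorded, and control rate was taken as blank-group incidence minus treated-group incidence.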

[2] = test system: gastric epithelial cells (GES-1); test: CCK-8 cell viability: alleviation of proliferative toxicity of anti-tumor agents on GES-1 (Table 8-3); assay type: cell-based, human; settings: NO-NSAID 100 μM
In short: (§1)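 Cells seeded at 5,000-10,000 per well and exposed to anti-tumor agent (DMSO solvent) alone or with NO-NSAID (ethanol or water solvent), with solvent controls used for correction. Viability read by CCK-8 after 24-48 hours; proliferative toxicity and its alleviation compared by t test.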

[3] = test system: human intestinal epithelial cells (FHs 74 Int); test: CCK-8 cell viability: alleviation of proliferative toxicity of anti-tumor agents on FHs 74 Int (Table 8-4); assay type: cell-based; settings: NO-NSAID 100 μM
In short: as §1

[4] = test system: human immortalized keratinocytes (HaCaT); test: CCK-8 cell viability: alleviation of proliferative toxicity of anti-tumor agents on HaCaT (Table 8-1); assay type: cell-based; settings: NO-NSAID 100 μM, percentage increase in viable cells vs anti-tumor agent alone
In short: as §1

[5] = test system: hand-foot syndrome caused by macromolecular anti-tumor agents; test: Prevention of hand-foot syndrome caused by macromolecular protein inhibitors in rats (Table 3); assay type: in vivo
[6] = test system: hand-foot syndrome caused by anti-tumor agents; test: Treatment of established hand-foot syndrome caused by anti-tumor agents in rats (Table 4); assay type: in vivo
In short: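 Rats (about 200 g), 10 per group, given anti-tumor agent by gavage (Cremophor EL:ethanol 1:1, diluted about 3 times with PBS), treated for established hand-foot syndrome with NO-NSAID ointment. Control rate is the blank-group incidence minus the treatment-group incidence.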

[7] = test system: human oral keratinocytes (HOK); test: CCK-8 cell viability: alleviation of proliferative toxicity of anti-tumor agents on HOK (Table 8-2); assay type: cell-based; settings: NO-NSAID 100 μM
In short: as §1

With `CC(=O)Oc1ccccc1C(=O)Oc1cccc(CO[N+](=O)[O-])c1` [Compound A2] the Control rate ([1]; Acelarin 130 mg/kg twice a week, ointment 1% wt, Days 30) was 28.57%, the Control rate ([1]; Capecitabine 4000 mg/kg once a day, ointment 2% wt, Days 40) was 22.22% and the Control rate ([1]; Capecitabine 4000 mg/kg once a day, ointment 5% wt, Days 40) was 28.57%. It also gave a Control rate ([1]; Capecitabine 4000 mg/kg once a day, ointment 10% wt, Days 40) of 33.33%, a Control rate ([1]; Cytarabine 120 mg/kg twice a day, ointment 2% wt, Days 30) of 14.29% and a Control rate ([1]; Cytarabine 120 mg/kg twice a day, ointment 5% wt, Days 30) of 42.86%. For the same molecule, the “Response rate % (average)” value ([2]; Afatinib (10 μM)) was 3%, the “Response rate % (average)” value ([2]; Cabozantinib (5 μM)) was 27% and the “Response rate % (average)” value ([2]; Dabrafenib (10 μM)) was 25%. The “Response rate % (average)” value ([2]; Everolimus (5 μM)) was 31%, the “Response rate % (average)” value ([2]; Infigratinib (15 μM)) was 39% and the “Response rate % (average)” value ([2]; Lapatinib (5 μM)) was 16%. For the same molecule, the “Response rate % (average)” value ([2]; Lenvatinib (10 μM)) was 23%, the “Response rate % (average)” value ([2]; Olmutinib (10 μM)) was 30% and the “Response rate % (average)” value ([2]; Regorafenib (5 μM)) was 18%. For the same molecule, the “Response rate % (average)” value ([2]; Selumetinib (5 μM)) was 17%, the “Response rate % (average)” value ([2]; Sorafenib (5 μM)) was 24% and the “Response rate % (average)” value ([2]; Sunitinib (5 μM)) was 18%. For the same molecule, the “Response rate % (average)” value ([3]; Afatinib (10 μM)) was 22%, the “Response rate % (average)” value ([3]; Cabozantinib (5 μM)) was 26% and the “Response rate % (average)” value ([3]; Dabrafenib (10 μM)) was 13%. For the same molecule, the “Response rate % (average)” value ([3]; Everolimus (5 μM)) was 27%, the “Response rate % (average)” value ([3]; Infigratinib (15 μM)) was 20% and the “Response rate % (average)” value ([3]; Lapatinib (5 μM)) was 20%. For the same molecule, the “Response rate % (average)” value ([3]; Lenvatinib (10 μM)) was 26%, the “Response rate % (average)” value ([3]; Olmutinib (10 μM)) was 25% and the “Response rate % (average)” value ([3]; Regorafenib (5 μM)) was 21%. For the same molecule, the “Response rate % (average)” value ([3]; Selumetinib (5 μM)) was 27%, the “Response rate % (average)” value ([3]; Sorafenib (5 μM)) was 26% and the “Response rate % (average)” value ([3]; Sunitinib (5 μM)) was 36%. For the same molecule, the “Response rate % (average)” value ([4]; Afatinib (10 μM)) was 20%, the “Response rate % (average)” value ([4]; Cabozantinib (5 μM)) was 36% and the “Response rate % (average)” value ([4]; Dabrafenib (10 μM)) was 21%. For the same molecule, the “Response rate % (average)” value ([4]; Everolimus (5 μM)) was 7%, the “Response rate % (average)” value ([4]; Infigratinib (15 μM)) was 16% and the “Response rate % (average)” value ([4]; Lapatinib (5 μM)) was 18%. For the same molecule, the “Response rate % (average)” value ([4]; Lenvatinib (10 μM)) was 1%, the “Response rate % (average)” value ([4]; Olmutinib (10 μM)) was 34% and the “Response rate % (average)” value ([4]; Regorafenib (5 μM)) was 26%. For the same molecule, the “Response rate % (average)” value ([4]; Selumetinib (5 μM)) was 18%, the “Response rate % (average)” value ([4]; Sorafenib (5 μM)) was 33% and the “Response rate % (average)” value ([4]; Sunitinib (5 μM)) was 31%. It also gave a Control rate ([5]; Bevacizumab, 5-FU combination, tail vein injection once a week, ointment 1% wt, Days 18) of 33.33%, a Control rate ([5]; Bevacizumab, 5-FU combination, tail vein injection once a week, ointment 5% wt, Days 18) of 50.00% and a Control rate ([5]; Ramucirumab combined with paclitaxel, intraperitoneal injection once a week, ointment 1% wt, Days 23) of 33.33%. It also gave a Control rate ([5]; Ramucirumab combined with paclitaxel, intraperitoneal injection once a week, ointment 5% wt, Days 23) of 66.67%, a Response rate ([6]; Apatinib 105 mg/kg once every two days, ointment 3% wt, Days 7) of 33.33% and a Response rate ([6]; Cabozantinib 50 mg/kg once every two days, ointment 1% wt, Days 13) of 14.29%. It also gave a Response rate ([6]; Erdafitinib 45 mg/kg once every two days, ointment 3% wt, Days 13) of 28.57%, a Response rate ([6]; Fruquintinib 40 mg/kg once every two days, ointment 3% wt, Days 8) of 50.00% and a Response rate ([6]; Lenvatinib 65 mg/kg once a day, ointment 3% wt, Days 9) of 33.33%. The Response rate ([6]; Regorafenib 90 mg/kg once every two days, ointment 1% wt, Days 7) was 33.33%, the Response rate ([6]; Sorafenib 80 mg/kg once every two days, ointment 2.00% wt, Days 5) was 20.00% and the Response rate ([6]; Sunitinib 120 mg/kg once every two days, ointment 3% wt, Days 7) was 33.33%. For the same molecule, the “Response rate % (average)” value ([7]; Afatinib (10 μM)) was 24%, the “Response rate % (average)” value ([7]; Cabozantinib (5 μM)) was 22% and the “Response rate % (average)” value ([7]; Dabrafenib (10 μM)) was 22%. The “Response rate % (average)” value ([7]; Everolimus (5 μM)) was 8%, the “Response rate % (average)” value ([7]; Infigratinib (15 μM)) was 21% and the “Response rate % (average)” value ([7]; Lapatinib (5 μM)) was −8%. For the same molecule, the “Response rate % (average)” value ([7]; Lenvatinib (10 μM)) was 19%, the “Response rate % (average)” value ([7]; Olmutinib (10 μM)) was 32% and the “Response rate % (average)” value ([7]; Regorafenib (5 μM)) was 3%. The “Response rate % (average)” value ([7]; Selumetinib (5 μM)) was 13%, the “Response rate % (average)” value ([7]; Sorafenib (5 μM)) was 31% and the “Response rate % (average)” value ([7]; Sunitinib (5 μM)) was 27%.
